Reference: PubChem BioAssay (NCI)
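Grown in 96-well plates, cells were treated for 48 hours with each compound at five concentrations. Insufficient inhibition: endpoint recorded as highest concentration tested. TGI is the concentration that stops growth completely.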

How the values were obtained:
Assay in all cases: NCI tumour cell line growth inhibition, 48 h
COLO 205 colon = test system: COLO 205 colon
SK-MEL-2 melanoma = test system: SK-MEL-2 melanoma
MALME-3M melanoma = test system: MALME-3M melanoma
IGROV1 ovarian = test system: IGROV1 ovarian
PC-3 prostate = test system: PC-3 prostate
NCI-H23 lung = test system: NCI-H23 lung
MOLT-4 leukemia = test system: MOLT-4 leukemia
BT-549 breast = test system: BT-549 breast
MDA-MB-231 breast = test system: MDA-MB-231 breast
MDA-N = test system: MDA-N
UACC-257 melanoma = test system: UACC-257 melanoma
SNB-19 CNS = test system: SNB-19 CNS
RPMI-8226 leukemia = test system: RPMI-8226 leukemia
786-0 renal = test system: 786-0 renal
SN12C renal = test system: SN12C renal
NCI-H522 lung = test system: NCI-H522 lung
K-562 leukemia = test system: K-562 leukemia
HT29 colon = test system: HT29 colon
A498 renal = test system: A498 renal
EKVX NSCLC = test system: EKVX NSCLC
HCC-2998 colon = test system: HCC-2998 colon
HL-60(TB) leukemia = test system: HL-60(TB) leukemia
SK-MEL-28 melanoma = test system: SK-MEL-28 melanoma
OVCAR-8 ovarian = test system: OVCAR-8 ovarian
A549 NSCLC = test system: A549 NSCLC
NCI-H460 lung = test system: NCI-H460 lung
HCT-116 colon = test system: HCT-116 colon
SR leukemia = test system: SR leukemia
TK-10 renal = test system: TK-10 renal
OVCAR-3 ovarian = test system: OVCAR-3 ovarian
OVCAR-5 ovarian = test system: OVCAR-5 ovarian
SF-295 CNS = test system: SF-295 CNS
MCF7 breast = test system: MCF7 breast
HS 578T breast = test system: HS 578T breast
HOP-62 NSCLC = test system: HOP-62 NSCLC
SK-MEL-5 melanoma = test system: SK-MEL-5 melanoma
NCI/ADR-RES ovarian = test system: NCI/ADR-RES ovarian
SF-539 CNS = test system: SF-539 CNS
ACHN renal = test system: ACHN renal
M14 melanoma = test system: M14 melanoma
LOX IMVI melanoma = test system: LOX IMVI melanoma
U251 CNS = test system: U251 CNS
HCT-15 colon = test system: HCT-15 colon
UO-31 renal = test system: UO-31 renal
T-47D breast = test system: T-47D breast
SW-620 colon = test system: SW-620 colon
UACC-62 melanoma = test system: UACC-62 melanoma
MDA-MB-435 = test system: MDA-MB-435
KM12 colon = test system: KM12 colon
SK-OV-3 ovarian = test system: SK-OV-3 ovarian
HOP-92 NSCLC = test system: HOP-92 NSCLC
CAKI-1 renal = test system: CAKI-1 renal
CCRF-CEM leukemia = test system: CCRF-CEM leukemia
OVCAR-4 ovarian = test system: OVCAR-4 ovarian
SNB-75 CNS = test system: SNB-75 CNS
SF-268 CNS = test system: SF-268 CNS
DU-145 prostate = test system: DU-145 prostate
RXF 393 renal = test system: RXF 393 renal
NCI-H226 lung = test system: NCI-H226 lung

O=C1C=C(NCCc2cc(Cl)c(O)c(Cl)c2)C(=O)c2[nH]cnc21
TGI (COLO 205 colon): 52.7 µM
TGI (SK-MEL-2 melanoma): 57.6 µM
TGI (MALME-3M melanoma): 15.9 µM
TGI (IGROV1 ovarian): 38.8 µM
TGI (PC-3 prostate): > 100 µM
TGI (NCI-H23 lung): 36.8 µM
TGI (MOLT-4 leukemia): 67.5 µM
TGI (BT-549 breast): > 100 µM
TGI (MDA-MB-231 breast): > 100 µM
TGI (MDA-N): 33.8 µM
TGI (UACC-257 melanoma): 60 µM
TGI (SNB-19 CNS): > 100 µM
TGI (RPMI-8226 leukemia): > 100 µM
TGI (786-0 renal): > 100 µM
TGI (SN12C renal): > 100 µM
TGI (NCI-H522 lung): 31.4 µM
TGI (K-562 leukemia): 55.4 µM
TGI (HT29 colon): > 100 µM
TGI (A498 renal): > 100 µM
TGI (EKVX NSCLC): > 100 µM
TGI (HCC-2998 colon): > 100 µM
TGI (HL-60(TB) leukemia): 32.9 µM
TGI (SK-MEL-28 melanoma): 65.9 µM
TGI (OVCAR-8 ovarian): > 100 µM
TGI (A549 NSCLC): > 100 µM
TGI (NCI-H460 lung): 68.3 µM
TGI (HCT-116 colon): > 100 µM
TGI (SR leukemia): > 100 µM
TGI (TK-10 renal): > 100 µM
TGI (OVCAR-3 ovarian): 47.2 µM
TGI (OVCAR-5 ovarian): > 100 µM
TGI (SF-295 CNS): 45.6 µM
TGI (MCF7 breast): 64.8 µM
TGI (HS 578T breast): > 100 µM
TGI (HOP-62 NSCLC): > 100 µM
TGI (SK-MEL-5 melanoma): 31.5 µM
TGI (NCI/ADR-RES ovarian): > 100 µM
TGI (SF-539 CNS): > 100 µM
TGI (ACHN renal): > 100 µM
TGI (M14 melanoma): 26.7 µM
TGI (LOX IMVI melanoma): > 100 µM
TGI (U251 CNS): > 100 µM
TGI (HCT-15 colon): > 100 µM
TGI (UO-31 renal): > 100 µM
TGI (T-47D breast): 53.2 µM
TGI (SW-620 colon): > 100 µM
TGI (UACC-62 melanoma): 41.1 µM
TGI (MDA-MB-435): 30.3 µM
TGI (KM12 colon): > 100 µM

N#Cc1nc(C2SCCCS2)oc1N
TGI (SK-MEL-2 melanoma): > 100 µM
TGI (IGROV1 ovarian): > 100 µM
TGI (SK-OV-3 ovarian): > 100 µM
TGI (PC-3 prostate): > 100 µM
TGI (MOLT-4 leukemia): > 100 µM
TGI (MDA-MB-231 breast): > 100 µM
TGI (MDA-N): > 100 µM
TGI (UACC-257 melanoma): > 100 µM
TGI (HOP-92 NSCLC): > 100 µM
TGI (SNB-19 CNS): > 100 µM
TGI (RPMI-8226 leukemia): > 100 µM
TGI (786-0 renal): > 100 µM
TGI (SN12C renal): > 100 µM
TGI (CAKI-1 renal): > 100 µM
TGI (CCRF-CEM leukemia): > 100 µM
TGI (K-562 leukemia): > 100 µM
TGI (HT29 colon): > 100 µM
TGI (A498 renal): > 100 µM
TGI (EKVX NSCLC): > 100 µM
TGI (HL-60(TB) leukemia): > 100 µM
TGI (SK-MEL-28 melanoma): > 100 µM
TGI (OVCAR-8 ovarian): > 100 µM
TGI (A549 NSCLC): > 100 µM
TGI (OVCAR-4 ovarian): > 100 µM
TGI (HCT-116 colon): > 100 µM
TGI (SR leukemia): > 100 µM
TGI (TK-10 renal): > 100 µM
TGI (OVCAR-5 ovarian): > 100 µM
TGI (MCF7 breast): > 100 µM
TGI (HS 578T breast): > 100 µM
TGI (HOP-62 NSCLC): > 100 µM
TGI (SK-MEL-5 melanoma): > 100 µM
TGI (SNB-75 CNS): 0.843 µM
TGI (ACHN renal): > 100 µM
TGI (M14 melanoma): > 100 µM
TGI (LOX IMVI melanoma): > 100 µM
TGI (U251 CNS): > 100 µM
TGI (HCT-15 colon): > 100 µM
TGI (SW-620 colon): > 100 µM
TGI (UACC-62 melanoma): > 100 µM
TGI (SF-268 CNS): > 100 µM
TGI (DU-145 prostate): > 100 µM
TGI (MDA-MB-435): > 100 µM
TGI (KM12 colon): > 100 µM

C[N+]1(CCCC[N+]2(C)CCCCCCC2)CCCCCCC1
TGI (SK-MEL-2 melanoma): > 100 µM
TGI (MALME-3M melanoma): > 100 µM
TGI (IGROV1 ovarian): > 100 µM
TGI (PC-3 prostate): > 100 µM
TGI (NCI-H23 lung): > 100 µM
TGI (MOLT-4 leukemia): > 100 µM
TGI (BT-549 breast): > 100 µM
TGI (MDA-MB-231 breast): > 100 µM
TGI (MDA-N): > 100 µM
TGI (UACC-257 melanoma): > 100 µM
TGI (HOP-92 NSCLC): > 100 µM
TGI (RXF 393 renal): > 100 µM
TGI (SNB-19 CNS): > 100 µM
TGI (RPMI-8226 leukemia): > 100 µM
TGI (786-0 renal): > 100 µM
TGI (SN12C renal): > 100 µM
TGI (NCI-H522 lung): > 100 µM
TGI (CAKI-1 renal): > 100 µM
TGI (CCRF-CEM leukemia): > 100 µM
TGI (K-562 leukemia): > 100 µM
TGI (HT29 colon): > 100 µM
TGI (A498 renal): > 100 µM
TGI (EKVX NSCLC): > 100 µM
TGI (NCI-H226 lung): > 100 µM
TGI (HL-60(TB) leukemia): > 100 µM
TGI (SK-MEL-28 melanoma): > 100 µM
TGI (OVCAR-8 ovarian): > 100 µM
TGI (A549 NSCLC): > 100 µM
TGI (OVCAR-4 ovarian): > 100 µM
TGI (NCI-H460 lung): > 100 µM
TGI (HCT-116 colon): > 100 µM
TGI (SR leukemia): > 100 µM
TGI (TK-10 renal): > 100 µM
TGI (OVCAR-3 ovarian): > 100 µM
TGI (OVCAR-5 ovarian): > 100 µM
TGI (SF-295 CNS): > 100 µM
TGI (HS 578T breast): 60.4 µM
TGI (HOP-62 NSCLC): > 100 µM
TGI (SK-MEL-5 melanoma): > 100 µM
TGI (NCI/ADR-RES ovarian): > 100 µM
TGI (ACHN renal): > 100 µM
TGI (M14 melanoma): > 100 µM
TGI (LOX IMVI melanoma): > 100 µM
TGI (U251 CNS): > 100 µM
TGI (HCT-15 colon): > 100 µM
TGI (UO-31 renal): > 100 µM
TGI (T-47D breast): > 100 µM
TGI (SW-620 colon): > 100 µM
TGI (UACC-62 melanoma): > 100 µM
TGI (SF-268 CNS): > 100 µM
TGI (DU-145 prostate): > 100 µM
TGI (MDA-MB-435): > 100 µM
TGI (KM12 colon): > 100 µM

O=C(/C=C/c1cccs1)c1ccc(Cl)s1
TGI (COLO 205 colon): > 10 µM
TGI (SK-MEL-2 melanoma): > 100 µM
TGI (MALME-3M melanoma): > 100 µM
TGI (IGROV1 ovarian): > 10 µM
TGI (SK-OV-3 ovarian): > 100 µM
TGI (PC-3 prostate): > 100 µM
TGI (NCI-H23 lung): 51.2 µM
TGI (MOLT-4 leukemia): 52.3 µM
TGI (MDA-MB-231 breast): > 100 µM
TGI (MDA-N): > 10 µM
TGI (UACC-257 melanoma): > 100 µM
TGI (SNB-19 CNS): 47.6 µM
TGI (RPMI-8226 leukemia): 44 µM
TGI (786-0 renal): > 10 µM
TGI (SN12C renal): 34.8 µM
TGI (CAKI-1 renal): > 100 µM
TGI (CCRF-CEM leukemia): 59.5 µM
TGI (K-562 leukemia): > 100 µM
TGI (HT29 colon): > 10 µM
TGI (A498 renal): > 100 µM
TGI (EKVX NSCLC): > 100 µM
TGI (HCC-2998 colon): 34.7 µM
TGI (NCI-H226 lung): 85.1 µM
TGI (HL-60(TB) leukemia): 64.1 µM
TGI (SK-MEL-28 melanoma): 59.3 µM
TGI (OVCAR-8 ovarian): > 100 µM
TGI (A549 NSCLC): > 100 µM
TGI (OVCAR-4 ovarian): > 100 µM
TGI (NCI-H460 lung): > 100 µM
TGI (HCT-116 colon): 32.2 µM
TGI (SR leukemia): 63.2 µM
TGI (TK-10 renal): > 100 µM
TGI (OVCAR-5 ovarian): > 100 µM
TGI (SF-295 CNS): > 100 µM
TGI (MCF7 breast): > 100 µM
TGI (HS 578T breast): > 100 µM
TGI (HOP-62 NSCLC): > 100 µM
TGI (SK-MEL-5 melanoma): > 100 µM
TGI (SNB-75 CNS): > 100 µM
TGI (NCI/ADR-RES ovarian): > 100 µM
TGI (SF-539 CNS): > 100 µM
TGI (ACHN renal): > 100 µM
TGI (M14 melanoma): > 100 µM
TGI (U251 CNS): > 100 µM
TGI (HCT-15 colon): 35.2 µM
TGI (UO-31 renal): 38.6 µM
TGI (T-47D breast): > 100 µM
TGI (SW-620 colon): 51.7 µM
TGI (UACC-62 melanoma): > 100 µM
TGI (SF-268 CNS): > 100 µM
TGI (DU-145 prostate): > 100 µM
TGI (MDA-MB-435): 37.3 µM
TGI (KM12 colon): 44.3 µM
